Like-named read-outs stand apart in the source and are kept apart here.
How the values were obtained:
CB2 receptor [1] = biological target: T1, CB2 receptor (Homo sapiens, UniProt P34972); experiment: cAMP Assay #1: CB2 adenylylcyclase assay in CHO cells; assay type: cell-based; set-up: expressed in transfected cells; host or cells: CHO cells
Procedure: (§1) Compounds of the invention were assayed in an adenylylcyclase assay to determine agonist activity on the CB1 and CB2 receptors, the results of which are provided in Table 4. Exemplary methods for the adenylylcyclase assay can be found in the literature, for example, in Rhee, M-H., et al. Cannabinol Derivatives: Binding to Cannabinoid Receptors and Inhibition of Adenylylcyclase. J Med Chem. 40: 3228-3233 (1997).
CB2 Activity as determined by Adenylylcyclase Assay: CB2 receptor agonist activity was measured by measuring cAMP production. A compound of the invention was incubated with CHO cells expressing human recombinant CB2 for 10 minutes at 37° C.
(§2) Determination of EC50 values: The EC50 values (concentration producing a half-maximal response) were determined by non-linear regression analysis of the concentration-response curves generated with mean replicate values using Hill equation curve fitting: Y=D+[(A−D)/(1+(C/C50)^nH)], where Y=response, A=left asymptote of the curve, D=right asymptote of the curve, C=compound concentration, and C50=EC50, and nH=slope factor. This analysis was performed using software developed at Cerep (Hill software) and validated by comparison with data generated by the commercial software SigmaPlot® 4.0 for Windows® (© 1997 by SPSS Inc.).

CB1 receptor [2] = biological target: T2, CB1 receptor (Homo sapiens, UniProt P21554); experiment: cAMP Assay #2: Hit Hunter cAMP assay, Gi-coupled agonist activity, CB1; assay type: cell-based; set-up: host or cells: PathHunter cell lines
Procedure: (§3) Compounds of the invention were assayed in the Hit Hunter® cAMP assay to determine Gi-coupled agonist activity on the CB1 and CB2 receptors, the results of which are provided in Table 5.
(§4) The Hit Hunter® cAMP assay monitors the activation of a GPCR via Gi and […] secondary messenger signaling in a homogenous, non-imaging assay format using a technology developed by DiscoverX called Enzyme Fragment Complementation (EFC) with β-galactosidase (β-Gal) as the functional reporter. […] ED is fused to cAMP and in the assay competes with cAMP generated by cells for binding to a cAMP-specific antibody. Active β-Gal is formed by complementation of exogenous EA to any unbound ED cAMP. Active enzymes can then convert a chemiluminescent substrate, generating an output signal detectable on a standard microplate reader.
(§5) cAMP Hunter cell lines were expanded from freezer stocks according to standard procedures. Cells were seeded in a total volume of 20 μL into white walled, 384-well microplates and incubated at 37° C. for the appropriate time prior to testing. cAMP modulation was determined using the DiscoverX Hit Hunter cAMP XS+ assay. For Gi agonist activity determination, cells were incubated with sample in the presence of EC80 forskolin to induce response (20 μM and 25 μM in the CB1 and CB2 assays, respectively). Media was aspirated from cells and replaced with 15 μL 2:1 HBSS/10 mM HEPES:cAMP XS+Ab reagent.
(§6) Intermediate dilution of sample stocks was performed to generate 4× sample in assay buffer. 5 μL of 4× compound was added to cells and incubated at 37° C. or room temperature for 30 or 60 minutes. Final vehicle concentration was 1%. Assay signal was generated through incubation with 20 μL cAMP XS+ED/CL lysis cocktail for one hour at room temperature. Microplates were read following signal generation with a PerkinElmer Envision™ instrument for chemiluminescent signal detection. Compound activity was analyzed using CBIS data analysis suite (Chem Innovation, CA). For agonist assays, percentage activity was calculated using the following formula: % Activity=100%×(1−(mean RLU of test sample−mean RLU of Max control ligand)/(mean RLU of vehicle control−mean RLU of Max control ligand). Control ligand was the non-selective CB1/CB2 agonist CP55,940.

CB1 receptor [3] = biological target: T2, CB1 receptor; experiment: cAMP Assay #1: CB1 adenylylcyclase assay in CHO cells; assay type: cell-based; set-up: expressed in transfected cells; host or cells: CHO cells
Procedure: as §1
CB1 Activity as determined by Adenylylcyclase Assay: CB1 receptor agonist activity was measured by measuring cAMP production. A compound of the invention was incubated with CHO cells expressing human recombinant CB1 for 20 minutes at 37° C.
as §2

CB2 receptor [4] = biological target: T1, CB2 receptor; experiment: cAMP Assay #2: Hit Hunter cAMP assay, Gi-coupled agonist activity, CB2; assay type: cell-based; set-up: host or cells: cAMP Hunter cell lines; details: for CB2 fold selectivity: CB1 EC50 / CB2 EC50
Procedure: as §3, §4, §5, §6

CB1 receptor [5] = biological target: T2, CB1 receptor; experiment: CB1 competitive radioligand binding assay ([3H] SR141716A); set-up: expressed in transfected cells; host or cells: Chem-1 cells; details: for inhibition at 0.5 µM: 0.5 μM compound, 2.0 nM [3H] SR141716A, 90 min 37° C.
Method in brief: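 Chem-1 cells expressing human recombinant CB1 incubated 90 min at 37° C with 2.0 nM [3H]SR141716A and compound at 0.5 μM (1% DMSO) in HEPES pH 7.4 buffer with MgCl2, CaCl2, 0.2% BSA. Read-out is % inhibition of radioligand binding.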

CB2 receptor [6] = biological target: T1, CB2 receptor; experiment: cell-based; set-up: host or cells: cAMP Hunter cell lines; details: PathHunter agonist mode; read-out: CB2 Activity (β-Arrestin)
Method in brief: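 PathHunter β-Arrestin enzyme fragment complementation cells, EA-tagged β-Arrestin and PK-tagged receptor, exposed to compound for 90 to 180 minutes at 37° C. or room temperature, 1% vehicle. Chemiluminescence read 1 h after detection reagent; agonist % activity relative to vehicle and MAX control ligand.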

CB1 receptor [7] = biological target: T2, CB1 receptor; experiment: cell-based; set-up: host or cells: PathHunter cell lines
CB2 receptor [8] = biological target: T1, CB2 receptor; experiment: CB2 competitive radioligand binding assay ([3H] WIN-55,212-2); set-up: expressed in transfected cells; host or cells: CHO-K1 cells; details: for inhibition at 0.05 µM: 0.05 μM compound, 2.4 nM [3H] WIN-55,212-2, 90 min 37° C.; for Fold Selectivity (CB1/CB2): Table 2, ratio of Ki CB1/CB2
Method in brief: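 Single-concentration displacement: 2.4 nM [3H]WIN-55,212-2 competed with 0.05 μM compound (1% DMSO) for 90 min at 37 °C on human CB2 expressed in CHO-K1 cells (HEPES 20 mM, pH 7.0, 0.5% BSA). Result given as % inhibition of bound radioligand.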

[9] = PathHunter agonist mode, read-out: CB1 Activity (β-Arrestin)
[10] = CHO cells, 10 min 37° C., relative to 100 nM WIN 55212-2, read-out: CB2 Activity EC50 (cAMP)
[11] = Hit Hunter cAMP, 20 μM forskolin, control ligand CP55,940, read-out: CB1, EC50
[12] = CHO cells, 20 min 37° C., relative to 10 nM CP 55940, read-out: CB1 Activity EC50 (cAMP)
[13] = Hit Hunter cAMP, 25 μM forskolin, control ligand CP55,940, read-out: CB2, EC50
[14] = Table 2, read-out: CB1 Binding Ki
[15] = Table 2, read-out: CB2 Binding Ki

T1 sequence (P34972 whole entry): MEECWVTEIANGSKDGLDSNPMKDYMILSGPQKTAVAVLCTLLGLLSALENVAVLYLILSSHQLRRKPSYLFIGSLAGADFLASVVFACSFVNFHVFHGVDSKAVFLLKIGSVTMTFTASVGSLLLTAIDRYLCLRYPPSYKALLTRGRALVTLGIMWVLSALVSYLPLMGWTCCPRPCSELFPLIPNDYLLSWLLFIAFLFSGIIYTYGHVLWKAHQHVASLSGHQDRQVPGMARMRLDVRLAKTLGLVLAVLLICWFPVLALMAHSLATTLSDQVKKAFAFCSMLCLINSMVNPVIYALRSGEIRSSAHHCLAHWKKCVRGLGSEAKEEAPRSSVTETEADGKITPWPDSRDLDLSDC
T2 sequence (P21554 whole entry): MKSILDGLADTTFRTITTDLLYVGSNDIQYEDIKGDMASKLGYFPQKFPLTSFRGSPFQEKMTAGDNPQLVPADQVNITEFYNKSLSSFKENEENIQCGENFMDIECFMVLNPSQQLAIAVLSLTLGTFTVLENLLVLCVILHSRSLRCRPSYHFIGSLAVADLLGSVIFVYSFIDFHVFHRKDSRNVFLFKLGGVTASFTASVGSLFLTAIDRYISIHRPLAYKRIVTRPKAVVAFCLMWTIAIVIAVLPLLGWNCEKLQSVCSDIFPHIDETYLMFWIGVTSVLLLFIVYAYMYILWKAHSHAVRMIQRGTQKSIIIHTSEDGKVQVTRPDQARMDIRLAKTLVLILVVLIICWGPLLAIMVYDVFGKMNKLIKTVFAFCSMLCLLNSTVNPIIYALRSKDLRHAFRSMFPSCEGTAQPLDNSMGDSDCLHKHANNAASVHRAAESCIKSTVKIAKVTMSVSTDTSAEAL

Row | SMILES | EC50 (CB2 receptor [1]) [nM] | EC50 (CB1 receptor [2]) [nM] | EC50 (CB1 receptor [3]) [nM] | EC50 (CB2 receptor [4]) [nM] | CB2 fold selectivity (CB2 receptor [4]; Hit Hunter cAMP) | Ki (CB1 receptor [5]) [nM] | inhibition at 0.5 µM (CB1 receptor [5]) [%] | EC50 (CB2 receptor [6]) [nM] | EC50 (CB1 receptor [7]; [9]) [nM] | Ki (CB2 receptor [8]) [nM] | inhibition at 0.05 µM (CB2 receptor [8]) [%] | Fold Selectivity (CB1/CB2) (CB2 receptor [8]) | EC50 (CB2 receptor [1]; [10]) [nM] | EC50 (CB1 receptor [2]; [11]) [nM] | EC50 (CB1 receptor [3]; [12]) [nM] | EC50 (CB2 receptor [4]; [13]) [nM] | Ki (CB1 receptor [5]; [14]) [nM] | Ki (CB2 receptor [8]; [15]) [nM] | EC50 (CB1 receptor [7]) [nM]
1 | CCCCCCC(C)(C)c1cc(O)c2c(c1)OC(C)(C)[C@@H]1CC=C(C(=O)NCCO)C[C@@H]21 [Compound 5, (6aR,10aR)-1-Hydroxy-N-(2-hydroxyethyl)-6,6-dimethyl-3-(2-methyloctan-2-yl)-6a,7,10,10a-tetrahydro-6H-benzo[c]chromene-9-carboxamide] | 3.3 | 32.2 | < 3 | 3.9 | 8.2 | 350 | 49 | 520 | 620 | 28 | 57 | 12.6 | – | – | – | – | – | – | –
2 | CCCCCCC(C)(C)c1cc(O)c2c(c1)OC(C)(C)[C@@H]1CC=C(C(=O)NC3CC3)C[C@@H]21 [Compound 6, (6aR,10aR)—N-Cyclopropyl-1-hydroxy-6,6-dimethyl-3-(2-methyloctan-2-yl)-6a,7,10,10a-tetrahydro-6H-benzo[c]chromene-9-carboxamide] | < 3 | 4.7 | < 3 | 0.8 | 6.0 | 45 | 64 | 210 | 160 | 3.9 | 98 | 12 | – | – | – | – | – | – | –
3 | CCCCCCC(C)(C)c1cc(O)c2c(c1)OC(C)(C)[C@@H]1CC=C(C(=O)NCCCO)C[C@@H]21 [Compound 13, (6aR,10aR)-1-Hydroxy-N-(3-hydroxypropyl)-6,6-dimethyl-3-(2-methyloctan-2-yl)-6a,7,10,10a-tetrahydro-6H-benzo[c]chromene-9-carboxamide] | – | – | – | – | 26.5 | – | 49 | 807 | 787 | – | 68 | 34 | 3.1 | 66.2 | 4.6 | 2.5 | 420 | 12.4 | –
4 | CCCCCCC(C)(C)c1cc(O)c2c(c1)OC(C)(C)[C@@H]1CC=C(C(=O)N[C@H](C)CCO)C[C@@H]21 [Compound 14, (6aR,10aR)-1-Hydroxy-N—((R)-4-hydroxybutan-2-yl)-6,6-dimethyl-3-(2-methyloctan-2-yl)-6a,7,10,10a-tetrahydro-6H-benzo[c]chromene-9-carboxamide] | – | – | – | – | 115.2 | – | 25 | 8 | > 3000 | – | 47 | 22 | 9.7 | 470 | 10 | 4.1 | 1230 | 56 | –
5 | CCCCCCC(C)(C)c1cc(O)c2c(c1)OC(C)(C)[C@@H]1CC=C(C(=O)NCC(O)CO)C[C@@H]21 (stereo partly drawn) [Compound 24, (6aR,10aR)-N-(2,3-Dihydroxypropyl)-1-hydroxy-6,6-dimethyl-3-(2-methyloctan-2-yl)-6a,7,10,10a-tetrahydro-6H-benzo[c]chromene-9-carboxamide] | – | – | – | – | 63.5 | – | 44 | 2 | > 3000 | – | 60 | 35 | 2.4 | 223 | 13 | 3.5 | 1930 | 55 | –
6 | CCCCCCC(C)(C)c1cc(O)c2c(c1)OC(C)(C)[C@@H]1CC=C(C(=O)OC)C[C@@H]21 [Compound 28, Methyl (6aR,10aR)-1-hydroxy-6,6-dimethyl-3-(2-methyloctan-2-yl)-6a,7,10,10a-tetrahydro-6H-benzo[c]chromene-9-carboxylate] | 59 | – | 8.2 | – | – | 699 | 74 | 1.7 | – | 32 | 77 | 22 | – | – | – | – | – | – | 654
7 | CCCCCCC(C)(C)c1cc(OC)c2c(c1)OC(C)(C)[C@@H]1CC=C(C(=O)O)C[C@@H]21 [Compound 34, (6aR,10aR)-1-methoxy-6,6-dimethyl-3-(2-methyloctan-2-yl)-6a,7,10,10a-tetrahydro-6H-benzo[c]chromene-9-carboxylic acid] | > 300 | – | > 300 | – | – | > 3000 | – | > 3000 | – | > 3000 | – | – | – | – | – | – | – | – | > 3000
8 | CC(C)(c1ccccc1)c1cc(O)c2c(c1)OC(C)(C)[C@@H]1CC=C(C(=O)O)C[C@@H]21 [Compound 35, (6aR,10aR)-1-Hydroxy-6,6-dimethyl-3-(2-phenylpropan-2-yl)-6a,7,10,10a-tetrahydro-6H-benzo[c]chromene-9-carboxylic acid] | > 300 | – | > 300 | – | – | > 3000 | – | > 3000 | > 3000 | > 3000 | – | – | – | – | – | – | – | – | –

From US20210284621A1 (priority 2018, published 2021)
